Assay results from patent publication US5681708A, “Method for screening compositions” (SmithKline Beecham Corporation, priority 1994, dated 1997).

biological target: T1, CD4/Lck protein complex (Homo sapiens, UniProt P01730+P06239); test: CD4/Lck Dissociation Assay (ELISA-based, CEM cell extracts); format: biochemical; details: CEM cell detergent extract, 30 min at 30° C., OKT4 capture, C-Lck detection; read-out: IC50, concentration of test compound which dissociated 50% of the target CD4/Lck protein complex relative to controls
T1 construct: Detergent extracts of CEM cells were prepared by pelleting cells; endogenous in cells; host or cells: CEM (ATCC CCL 119), acute lymphoblastic CD4-positive human T-cell line; diluted detergent (NP-40) extract
Procedure: Acute lymphoblastic CD4-positive human T-cells, from the T-cell line CEM (ATCC CCL 119), were grown in suspension in RPMI-1640 medium supplemented with 10% heat-inactivated fetal calf serum at 37° C. to a cell density of 0.8-1.2×10^6 cells/mi. Detergent extracts of CEM cells were prepared by pelleting cells, washing with Dulbecco's phosphate buffered saline without Ca and Mg (D-PBS) at 4° C. and resuspending the cell pellet in sufficient freshly prepared extraction buffer (50 mM Tris, pH 8.0, 150 mM NaCl, 2 mM EDTA, 50 mM NaF, 3% NONIDET™ P-40, 0.1 mMNa vanadate, 0.1 mM PMSF, 10 ug/ml leupeptin, 10 ug/ml aprotinin, 10 ug/ml TLCK) to yield 1.0×10^8 cells in a volume of 1 ml. The cell pellet was resuspended gently on ice until a homogeneous suspension was obtained and kept on ice for at least 30 min with occasional vortexing. The suspension was then centrifuged at 29,000 xg for 30 min at 4° C.; the clear cell extract supernatant was transferred to a clean tube and placed on ice.
Cell extracts were diluted 16-fold with ice-cold PBS (0.1M phosphate, 0.15M NaCl, ph 7.4) containing 0.5% (w/v) BSA and 0.05% (v/v) TWEEN™ 20 (PBT) to yield 6.25×10^6 cell equivalents/mi. Candidate dissociative agents were diluted to 1 mg/ml with ddH2 O and 10 ul were added to Corning plate wells. A 90 ul volume of diluted cell extract (5.6×10^5 cell equivalents) were added to the Corning plate wells containing an organic solvent to provide a final candidate agent concentration of 0.1 mg/ml. Exemplary organic solvents are DMSO and ethanol. The resulting final concentration of organic solvent was 1%. The plates were incubated for 30 min at 30° C. in a water bath and then transferred to ice. Alternatively, diluted cell extracts can be incubated with candidate agents for 2 to 3 hours at room temperature (22°-25° C.).
ELISA assay plate wells were prepared by coating MaxiSorp™ (Nunc, round-bottom wells) or TITERTEK™ plate wells overnight at 4° C. with 100 ul of 2.5 ug/ml OKT4 CD4 mAb in 0.1M NaHCO3, pH 9.2. TITERTEK™ and Corning ELISA plates were also successfully used. Other CD4 monoclonal antibodies which bind to portions of the V1 domain in the extracellular portion of the CD4 molecule may also be used. All CD4 monoclonal antibodies were either purchased from Ortho or purified from specific hybridomas available from the ATCC. OKT4 hybridoma is available under ATCC CRL 8002.
When ready for use, the coating solution was removed and the wells rinsed 3× with PBS. A blocking step was performed by adding 0.3 ml PBT per well and incubating at least 30 min at 37° C. All PBT was removed and 50 ul of diluted cell extracts were added to the test wells. 50 ul of extraction buffer/PBT (1:15, v/v) were added to the assay blank wells. The plates were sealed and incubated 1 hour at 4° C. […]

T1 sequence (P06239 2-509 limits assumed, other chains not shown): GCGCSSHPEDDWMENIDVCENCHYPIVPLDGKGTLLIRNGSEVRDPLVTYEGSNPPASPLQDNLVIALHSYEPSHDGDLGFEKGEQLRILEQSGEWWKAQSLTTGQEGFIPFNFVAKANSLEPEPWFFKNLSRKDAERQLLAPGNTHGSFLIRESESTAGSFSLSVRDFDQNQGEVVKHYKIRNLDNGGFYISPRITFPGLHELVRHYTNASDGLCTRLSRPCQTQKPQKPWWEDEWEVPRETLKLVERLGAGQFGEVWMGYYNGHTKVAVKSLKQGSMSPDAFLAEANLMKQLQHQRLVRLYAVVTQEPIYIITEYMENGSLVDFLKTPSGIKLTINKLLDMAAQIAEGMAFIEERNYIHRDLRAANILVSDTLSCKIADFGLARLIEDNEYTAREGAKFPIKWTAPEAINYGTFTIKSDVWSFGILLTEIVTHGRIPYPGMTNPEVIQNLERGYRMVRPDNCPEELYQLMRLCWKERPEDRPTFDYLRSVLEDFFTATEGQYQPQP

Compound | IC50 [µM]
5,7-dihydroxy-4'-methoxyisoflavone [Genistein] | > 200
CCCCCCCCCCCC1N=C(N)N2CCCC2=C1C(=O)OCCCCNC(=N)N (stereo not shown) [Crambine A] | < 100
N#CC(C#N)=Cc1ccc(O)c(O)c1 [LC-A23, 2-cyano, 3-(3,4-dihydroxyphenyl)acrylonitrile] | > 500
N#C/C(=C\c1ccc(O)c(O)c1)C(N)=O [LC-A46, trans-2-cyano, 3-(3,4-dihydroxyphenyl)acrylamide] | 300
